Measurements reported in patent US20100255530A1, “BACTERIA DETECTION AND/OR IDENTIFICATION MEDIUM” (BIOMERIEUX, priority 2007, published 2010).

Tested on: Citrobacter freundii 009
Experiment: Impact of cellobiose on colony coloration, Citrobacter freundii 009
Type: cell-based
Details: cellobiose 0.5 g/l in medium combining the glucuronide and galactoside substrates
Description: The coloration of these colonies is noted.

**Q.** `O=C[C@H](O)[C@@H](O)[C@H](O[C@@H]1O[C@H](CO)[C@@H](O)[C@H](O)[C@H]1O)[C@H](O)CO` [cellobiose] was tested. Which “distinction of the Citrobacter 009 strain from the E. coli strains” value did it give?
**A.** makes it possible to distinguish the Citrobacter 009 strain more clearly from the E. coli strains
